Values quoted from earlier work, collected in patent publication US7151091B2, “Compositions and methods for preventing infection” (The Johns Hopkins University, priority 2002, dated 2006).

Legend:
[1] = system: human immunodeficiency virus (HIV); details: given to HIV-infected pregnant women before and during childbirth and to their infants after childbirth
[2] = concentrations ranging from 5–100 mM

Structure (SMILES) | reduction of HIV transmission [1] | removal of membrane cholesterol [2]
Cc1cn([C@H]2C[C@H](N=[N+]=[N-])[C@@H](CO)O2)c(=O)[nH]c1=O [zidovudine] | two-thirds | 
CC(O)COC[C@H]1O[C@@H]2O[C@H]3[C@H](O)[C@@H](O)[C@@H](O[C@H]4[C@H](O)[C@@H](O)[C@@H](O[C@H]5[C@H](O)[C@@H](O)[C@@H](O[C@H]6[C@H](O)[C@@H](O)[C@@H](O[C@H]7[C@H](O)[C@@H](O)[C@@H](O[C@H]8[C@H](O)[C@@H](O)[C@@H](O[C@H]1[C@H](O)[C@H]2O)O[C@@H]8COCC(C)O)O[C@@H]7COCC(C)O)O[C@@H]6COCC(C)O)O[C@@H]5COCC(C)O)O[C@@H]4COCC(C)O)O[C@@H]3COCC(C)O (stereo partly drawn) [2-OH-propyl-beta-cyclodextrin] |  | removes membrane cholesterol within minutes
